Read-outs that look alike come from different tables or passages of the source.
Assays:
NCI-H522 = assay: panel of 60 human tumor cell lines, growth inhibition (Non-Small Cell Lung Cancer); settings: Homo sapiens; for GI50: NCI-H522; for CC50: NCI-H522, read-out: LC50; for IC (TGI): NCI-H522, read-out: TGI
MDA-MB-231/ATCC = assay: panel of 60 human tumor cell lines, growth inhibition (Breast Cancer); settings: Homo sapiens; for GI50: MDA-MB-231; for CC50: MDA-MB-231, read-out: LC50; for IC (TGI): MDA-MB-231, read-out: TGI
SN12C = assay: panel of 60 human tumor cell lines, growth inhibition (Renal Cancer); settings: Homo sapiens; for CC50: read-out: LC50; for IC (TGI): read-out: TGI
CCRF-CEM = assay: panel of 60 human tumor cell lines, growth inhibition (Leukemia); settings: Homo sapiens; for CC50: read-out: LC50; for IC (TGI): read-out: TGI
MDA-MB-435 = assay: panel of 60 human tumor cell lines, growth inhibition (Melanoma); settings: Homo sapiens; for GI50: MDA-MB-435; for CC50: MDA-MB-435, read-out: LC50; for IC (TGI): MDA-MB-435, read-out: TGI
SF-539 = assay: panel of 60 human tumor cell lines, growth inhibition (CNS Cancer); settings: Homo sapiens; for GI50: SF-539; for CC50: SF-539, read-out: LC50; for IC (TGI): SF-539, read-out: TGI
M14 = assay: panel of 60 human tumor cell lines, growth inhibition (Melanoma); settings: Homo sapiens; for GI50: M14; for CC50: M14, read-out: LC50; for IC (TGI): M14, read-out: TGI
KM12 = assay: panel of 60 human tumor cell lines, growth inhibition (Colon Cancer); settings: for GI50 / CC50: Homo sapiens; for GI50 / TGI / Percent Growth: KM12; for CC50: KM12, read-out: LC50
PC-3 = assay: panel of 60 human tumor cell lines, growth inhibition (Prostate Cancer); settings: Homo sapiens; for GI50: PC-3; for CC50: PC-3, read-out: LC50; for IC (TGI): PC-3, read-out: TGI
HCT-15 = assay: panel of 60 human tumor cell lines, growth inhibition (Colon Cancer); settings: Homo sapiens; for GI50: HCT-15; for CC50: HCT-15, read-out: LC50; for IC (TGI): HCT-15, read-out: TGI
NCI-H226 = assay: panel of 60 human tumor cell lines, growth inhibition (Non-Small Cell Lung Cancer); settings: Homo sapiens; for GI50: NCI-H226; for CC50: NCI-H226, read-out: LC50
NCI-H23 = assay: as above; settings: Homo sapiens; for GI50: NCI-H23; for CC50: NCI-H23, read-out: LC50; for IC (TGI): NCI-H23, read-out: TGI
NCI-H460 = assay: panel of 60 human tumor cell lines, growth inhibition (Non-Small Cell Lung Cancer); settings: Homo sapiens; for GI50: NCI-H460; for CC50: NCI-H460, read-out: LC50; for IC (TGI): NCI-H460, read-out: TGI
ACHN = assay: panel of 60 human tumor cell lines, growth inhibition (Renal Cancer); settings: Homo sapiens; for CC50: read-out: LC50; for IC (TGI): read-out: TGI
HOP-92 = assay: panel of 60 human tumor cell lines, growth inhibition (Non-Small Cell Lung Cancer); settings: Homo sapiens; for GI50: HOP-92, HOP-92; for CC50: HOP-92, read-out: LC50; for IC (TGI): HOP-92, read-out: TGI
COLO 205 = assay: panel of 60 human tumor cell lines, growth inhibition (Colon Cancer); settings: Homo sapiens; for GI50: COLO 205; for CC50: COLO 205, read-out: LC50; for IC (TGI): COLO 205, read-out: TGI
HT29 = assay: as above; settings: for Percent Growth: HT29

C=C1C(=O)O[C@H]2[C@H]1CC/C(COC(=O)NCCN1CCOCC1)=C\CC[C@@]1(C)O[C@@H]21 [JVM 57, ((1aR,7aS,10aS,10bS,E)-1a-methyl-8-methylene-9-oxo-1a,2,3,6,7,7a,8,9,10a,10b-decahydrooxireno[2′,3′:9,10]-cyclodeca[1,2-b]furan-5-yl)-methyl(2-morpholinoethyl)carbamate]
GI50 (NCI-H522): 2.13 µM
CC50 (NCI-H522): 31.8 µM
IC (TGI) (NCI-H522): 5.88 µM
GI50 (MDA-MB-231/ATCC): 13.7 µM
CC50 (MDA-MB-231/ATCC): 64.3 µM
IC (TGI) (MDA-MB-231/ATCC): 29.7 µM
GI50 (SN12C): 18.8 µM
CC50 (SN12C): > 100 µM
IC (TGI) (SN12C): 55.2 µM
GI50 (CCRF-CEM): 3.03 µM
GI50 (CCRF-CEM; 5-dose assay): 3.03 µM
CC50 (CCRF-CEM): ≥ 109 µM
IC (TGI) (CCRF-CEM): 11.6 µM
GI50 (MDA-MB-435): 5.89 µM
CC50 (MDA-MB-435): 66.9 µM
IC (TGI) (MDA-MB-435): 22 µM
GI50 (SF-539): 14.4 µM
CC50 (SF-539): 55.2 µM
IC (TGI) (SF-539): 28.2 µM
GI50 (M14): 7.97 µM
CC50 (M14): 58.5 µM
IC (TGI) (M14): 23.1 µM
GI50 (KM12): 26.3 µM
CC50 (KM12): > 100 µM
TGI (KM12): 7.66E−5
Percent Growth (KM12; Log10 Concentration −4.0): −12%
Percent Growth (KM12; Log10 Concentration −5.0): 95%
Percent Growth (KM12; Log10 Concentration −6.0): 100%
Percent Growth (KM12; Log10 Concentration −7.0): 106%
Percent Growth (KM12; Log10 Concentration −8.0): 102%
GI50 (PC-3): 16.6 µM
CC50 (PC-3): 85.8 µM
IC (TGI) (PC-3): 37.8 µM
GI50 (HCT-15): 10.5 µM
CC50 (HCT-15): > 100 µM
IC (TGI) (HCT-15): 34.4 µM
GI50 (NCI-H226): 42.7 µM
CC50 (NCI-H226): > 100 µM
IC (TGI) (NCI-H226; NCI-H226, read-out: TGI): > 100 µM
GI50 (NCI-H23): 15.8 µM
CC50 (NCI-H23): 84.3 µM
IC (TGI) (NCI-H23): 36.5 µM
Percent Growth (HL-60(TB); Log10 Concentration −4.0): −55%
Percent Growth (HL-60(TB); Log10 Concentration −5.0): 14%
Percent Growth (HL-60(TB); Log10 Concentration −6.0): 95%
Percent Growth (HL-60(TB); Log10 Concentration −7.0): 101%
Percent Growth (HL-60(TB); Log10 Concentration −8.0): 100%
GI50 (NCI-H460): 27.1 µM
CC50 (NCI-H460): > 100 µM
IC (TGI) (NCI-H460): 87.3 µM
GI50 (ACHN): 3.74 µM
CC50 (ACHN): 44.3 µM
IC (TGI) (ACHN): 14.3 µM
GI50 (HOP-92): 2.3 µM
GI50 (HOP-92; 5-dose assay): 2.3 µM
CC50 (HOP-92): 33.7 µM
IC (TGI) (HOP-92): 8.61 µM
GI50 (COLO 205): 8.89 µM
CC50 (COLO 205): 71.6 µM
IC (TGI) (COLO 205): 25.9 µM
Percent Growth (HT29; Log10 Concentration −4.0): −74%
Percent Growth (HT29; Log10 Concentration −5.0): 43%
Percent Growth (HT29; Log10 Concentration −6.0): 110%
Percent Growth (HT29; Log10 Concentration −7.0): 108%
Percent Growth (HT29; Log10 Concentration −8.0): 102%
GI50 (HT29; Homo sapiens, HT-29): 7.83 µM
CC50 (HT29; Homo sapiens, HT-29, read-out: LC50): 62.7 µM
IC (TGI) (HT29; Homo sapiens, HT-29, read-out: TGI): 23.3 µM

C=C1C(=O)O[C@H]2[C@H]1CC/C(COC(=O)OCCCN1CCCCC1)=C\CC[C@@]1(C)O[C@@H]21 [JVM 2-26]
GI50 (NCI-H522): 1.41 µM
CC50 (NCI-H522): 7.24 µM
IC (TGI) (NCI-H522): 3.2 µM
GI50 (MDA-MB-231/ATCC): 3.73 µM
CC50 (MDA-MB-231/ATCC): 49.4 µM
IC (TGI) (MDA-MB-231/ATCC): 16.2 µM
GI50 (SN12C): 8.41 µM
CC50 (SN12C): 55.2 µM
IC (TGI) (SN12C): 22.7 µM
GI50 (CCRF-CEM): 1.78 µM
CC50 (CCRF-CEM): 63.5 µM
IC (TGI) (CCRF-CEM): 5.72 µM
GI50 (MDA-MB-435): 2.99 µM
CC50 (MDA-MB-435): 38.5 µM
IC (TGI) (MDA-MB-435): 13.2 µM
GI50 (SF-539): 2.39 µM
CC50 (SF-539): 32.1 µM
IC (TGI) (SF-539): 8.7 µM
GI50 (M14): 3.85 µM
CC50 (M14): 41.1 µM
IC (TGI) (M14): 15.5 µM
GI50 (KM12): 15.5 µM
CC50 (KM12): 63.3 µM
TGI (KM12): 3.13E−5
Percent Growth (KM12; Log10 Concentration −4.0): −83%
Percent Growth (KM12; Log10 Concentration −5.0): 81%
Percent Growth (KM12; Log10 Concentration −6.0): 97%
Percent Growth (KM12; Log10 Concentration −7.0): 94%
Percent Growth (KM12; Log10 Concentration −8.0): 95%
GI50 (PC-3): 12.7 µM
CC50 (PC-3): 56.2 µM
IC (TGI) (PC-3): 16.7 µM
GI50 (HCT-15): 2.39 µM
CC50 (HCT-15): 37 µM
IC (TGI) (HCT-15): 10.6 µM
GI50 (NCI-H226): 4.43 µM
CC50 (NCI-H226): 79.8 µM
GI50 (NCI-H23): 12.8 µM
CC50 (NCI-H23): 67.1 µM
IC (TGI) (NCI-H23): 29.4 µM
Percent Growth (HL-60(TB); Log10 Concentration −4.0): −50%
Percent Growth (HL-60(TB); Log10 Concentration −5.0): −10%
Percent Growth (HL-60(TB); Log10 Concentration −6.0): 73%
Percent Growth (HL-60(TB); Log10 Concentration −7.0): 64%
Percent Growth (HL-60(TB); Log10 Concentration −8.0): 93%
GI50 (NCI-H460): 16.7 µM
CC50 (NCI-H460): 77.5 µM
IC (TGI) (NCI-H460): 36 µM
GI50 (ACHN): 2.14 µM
CC50 (ACHN): 31.5 µM
IC (TGI) (ACHN): 8.06 µM
GI50 (HOP-92): 1.96 µM
CC50 (HOP-92): 31.4 µM
IC (TGI) (HOP-92): 7.47 µM
GI50 (COLO 205): 1.7 µM
CC50 (COLO 205): 7.07 µM
IC (TGI) (COLO 205): 3.47 µM
